Test results: PubChem BioAssay AID248 (DTP/NCI, 2004)
“And” between values parts separate entries of the source, which are not always exact repeats. Equal values may be shown once. Toxic doses and inconclusive results are not listed. No stated cut-off is given here; in the data, active means T/C of 150% or more; inactive means T/C below 125%.

System: L1210 leukemia ip in BDF1 mice, survival T/C
Test: NCI In Vivo Anticancer Drug Screen. Data for tumor model L1210 Leukemia (intraperitoneal) in B6D2F1 (BDF1) mice
Details: endpoint: mean survival time, higher = longer survival
Summary of the method: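 Antitumor effect is assessed in tumor-bearing animals. Survival in the compound arm is compared with a vehicle-dosed control arm and expressed as their quotient.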

[1] = dose: 100.0 mg/kg/injection, schedule: Q01DX009 (ip), vehicle: saline with Tween-80
[2] = dose: 100.0 mg/kg/injection, schedule: Q04DX002 (ip), vehicle: Klucel (hydroxypropylcellulose) (HPC)
[3] = dose: 100.0 mg/kg/injection, schedule: Q04DX003 (ip), vehicle: saline with Tween-80
[4] = dose: 200.0 mg/kg/injection, schedule: Q01DX009 (ip), vehicle: saline with Tween-80
[5] = dose: 200.0 mg/kg/injection, schedule: Q04DX002 (ip), vehicle: Klucel (hydroxypropylcellulose) (HPC)
[6] = dose: 200.0 mg/kg/injection, schedule: Q04DX003 (ip), vehicle: saline with Tween-80
[7] = dose: 400.0 mg/kg/injection, schedule: Q01DX009 (ip), vehicle: saline with Tween-80
[8] = dose: 400.0 mg/kg/injection, schedule: Q04DX002 (ip), vehicle: Klucel (hydroxypropylcellulose) (HPC)
[9] = dose: 400.0 mg/kg/injection, schedule: Q04DX003 (ip), vehicle: saline with Tween-80
[10] = dose: 100.0 mg/kg/injection, schedule: Q01DX009 (ip), vehicle: Klucel (hydroxypropylcellulose) (HPC)
[11] = dose: 200.0 mg/kg/injection, schedule: Q01DX009 (ip), vehicle: Klucel (hydroxypropylcellulose) (HPC)
[12] = dose: 400.0 mg/kg/injection, schedule: Q01DX009 (ip), vehicle: Klucel (hydroxypropylcellulose) (HPC)
[13] = dose: 50.0 mg/kg/injection, schedule: Q01DX009 (ip), vehicle: Klucel (hydroxypropylcellulose) (HPC)
[14] = dose: 50.0 mg/kg/injection, schedule: Q04DX002 (ip), vehicle: Klucel (hydroxypropylcellulose) (HPC)
[15] = dose: 100.0 mg/kg/injection, schedule: Q01DX001 (ip), vehicle: Klucel (hydroxypropylcellulose) (HPC)
[16] = dose: 200.0 mg/kg/injection, schedule: Q01DX001 (ip), vehicle: Klucel (hydroxypropylcellulose) (HPC)
[17] = dose: 400.0 mg/kg/injection, schedule: Q01DX001 (ip), vehicle: Klucel (hydroxypropylcellulose) (HPC)
[18] = dose: 100.0 mg/kg/injection, schedule: Q01DX001 (ip), vehicle: saline
[19] = dose: 200.0 mg/kg/injection, schedule: Q01DX001 (ip), vehicle: saline
[20] = dose: 6.25 mg/kg/injection, schedule: Q04DX003 (ip), vehicle: Klucel (hydroxypropylcellulose) (HPC)
[21] = dose: 12.5 mg/kg/injection, schedule: Q04DX003 (ip), vehicle: Klucel (hydroxypropylcellulose) (HPC)
[22] = dose: 25.0 mg/kg/injection, schedule: Q04DX003 (ip), vehicle: Klucel (hydroxypropylcellulose) (HPC)
[23] = dose: 50.0 mg/kg/injection, schedule: Q01DX009 (ip), vehicle: saline with Tween-80
[24] = dose: 100.0 mg/kg/injection, schedule: Q04DX003 (ip), vehicle: Klucel (hydroxypropylcellulose) (HPC)
[25] = dose: 200.0 mg/kg/injection, schedule: Q04DX003 (ip), vehicle: Klucel (hydroxypropylcellulose) (HPC)
[26] = dose: 400.0 mg/kg/injection, schedule: Q04DX003 (ip), vehicle: Klucel (hydroxypropylcellulose) (HPC)

Measured: T/C

CSc1ccc(OC(=O)Nc2ccc(Cl)cc2)cc1
inactive: dose: 100.0 mg/kg/injection, schedule: Q01DX001 (ip), vehicle: saline with Tween-80 95 % of control | [1] 104 % of control and 106 % of control | [2] 103 % of control | dose: 100.0 mg/kg/injection, schedule: Q04DX002 (ip), vehicle: saline with Tween-80 98 % of control | [3] 93 % of control | dose: 200.0 mg/kg/injection, schedule: Q01DX001 (ip), vehicle: saline with Tween-80 106 % of control | [4] 102 % of control and 104 % of control | [5] 103 % of control | dose: 200.0 mg/kg/injection, schedule: Q04DX002 (ip), vehicle: saline with Tween-80 90 % of control | [6] 95 % of control | dose: 400.0 mg/kg/injection, schedule: Q01DX001 (ip), vehicle: saline with Tween-80 90 % of control | [7] 100 % of control and 117 % of control | [8] 92 % of control | dose: 400.0 mg/kg/injection, schedule: Q04DX002 (ip), vehicle: saline with Tween-80 98 % of control | [9] 98 % of control

COC(=O)c1cc(NC(=O)Nc2cccc(C(F)(F)F)c2)cc(C(=O)OC)c1
inactive: [1] 100 % of control | [4] 92 % of control | [7] 96 % of control

O=c1[nH]c2cc3[nH]c(=O)c(=O)c3cc2c1=O
inactive: [10] 102 % of control | [11] 100 % of control | [12] 100 % of control

CC(CC(CCC(CC(C)CC(C)(C)C)N(C)C)N(C)C)CC(C)(C)C (stereo unspecified)
inactive: [13] 90 % of control | [14] 93 % of control | [10] 96 % of control | [2] 87 % of control | [11] 101 % of control

CCOC(=O)Cc1cc(=O)n(C)c2ccccc12
inactive: dose: 100.0 mg/kg/injection, schedule: Q01DX001 (ip), vehicle: other 97 % of control | dose: 200.0 mg/kg/injection, schedule: Q01DX001 (ip), vehicle: other 97 % of control | dose: 400.0 mg/kg/injection, schedule: Q01DX001 (ip), vehicle: other 103 % of control

COc1ccccc1NC(=O)NCCN1CCCC1
inactive: [10] 98 % of control | [11] 98 % of control

CC(C)(SCCc1ccccn1)C(N)C(=O)O (stereo unspecified)
inactive: [15] 102 % of control | [16] 107 % of control | [17] 96 % of control

C=CC(C)(C)c1c2c(c(O)c3c(=O)c4ccc(O)c(O)c4oc13)C=CC(C)(C)O2
inactive: dose: 100.0 mg/kg/injection, schedule: Q01DX001 (ip), vehicle: carboxymethylcellulose (CMC) 95 % of control | dose: 200.0 mg/kg/injection, schedule: Q01DX001 (ip), vehicle: carboxymethylcellulose (CMC) 92 % of control | dose: 400.0 mg/kg/injection, schedule: Q01DX001 (ip), vehicle: carboxymethylcellulose (CMC) 95 % of control

O=[N+]([O-])c1ccc(S(=O)(=O)OCC2CO2)cc1 (stereo unspecified)
inactive: dose: 100.0 mg/kg/injection, schedule: Q01DX008 (ip), vehicle: Klucel (hydroxypropylcellulose) (HPC) 108 % of control | dose: 200.0 mg/kg/injection, schedule: Q01DX008 (ip), vehicle: Klucel (hydroxypropylcellulose) (HPC) 95 % of control | dose: 400.0 mg/kg/injection, schedule: Q01DX008 (ip), vehicle: Klucel (hydroxypropylcellulose) (HPC) 89 % of control

Oc1cccc(-c2nnc(-c3cccc(O)c3)nn2)c1
inactive: [18] 101 % of control | [19] 96 % of control | dose: 400.0 mg/kg/injection, schedule: Q01DX001 (ip), vehicle: saline 102 % of control

Cc1ccc(C(=O)CC(Sc2ccccc2N)c2cccc([N+](=O)[O-])c2)cc1 (stereo unspecified)
inactive: dose: 100.0 mg/kg/injection, schedule: Q01DX005 (ip), vehicle: Klucel (hydroxypropylcellulose) (HPC) 93 % of control | [10] 97 % of control | [2] 98 % of control | dose: 200.0 mg/kg/injection, schedule: Q01DX005 (ip), vehicle: Klucel (hydroxypropylcellulose) (HPC) 96 % of control | [11] 94 % of control | dose: 400.0 mg/kg/injection, schedule: Q01DX005 (ip), vehicle: Klucel (hydroxypropylcellulose) (HPC) 115 % of control | [12] 97 % of control | [8] 95 % of control

NC(CCl)=NC1CCCC1
inactive: dose: 25.0 mg/kg/injection, schedule: Q04DX002 (ip), vehicle: saline 109 % of control | dose: 50.0 mg/kg/injection, schedule: Q04DX002 (ip), vehicle: saline 102 % of control | dose: 100.0 mg/kg/injection, schedule: Q04DX002 (ip), vehicle: saline 121 % of control

CCC[CH2][Hg][Cl]
inactive: dose: 6.25 mg/kg/injection, schedule: Q01DX009 (ip), vehicle: saline with Tween-80 94 % of control | [20] 93 % of control | dose: 12.5 mg/kg/injection, schedule: Q01DX009 (ip), vehicle: saline with Tween-80 92 % of control | [21] 92 % of control | [22] 88 % of control

CC(C)=CCC(CCN1CCOCC1)(C(N)=O)c1cccc2ccccc12 (stereo unspecified)
inactive: [20] 104 % of control | dose: 12.5 mg/kg/injection, schedule: Q01DX009 (ip), vehicle: Klucel (hydroxypropylcellulose) (HPC) 96 % of control | [21] 94 % of control | dose: 25.0 mg/kg/injection, schedule: Q01DX009 (ip), vehicle: Klucel (hydroxypropylcellulose) (HPC) 104 % of control | [22] 98 % of control | [13] 90 % of control

CC(=O)Nc1ccc(OCCOC(=O)Nc2ccc(C)c([N+](=O)[O-])c2)cc1
inactive: [23] 87 % of control | [4] 87 % of control

O=C(O)c1ccc(N=C=S)cc1O
inactive: [15] 97 % of control | [16] 107 % of control | [17] 97 % of control

[Cl][Pd][Cl].[NH-]C1CCCCC1.[NH-]C1CCCCC1
inactive: [14] 94 % of control | [2] 102 % of control | [5] 87 % of control

CC(N)=O.CC(N)=O.Nc1ccnc(=O)[nH]1.[Cl][Pt]
inactive: dose: 100.0 mg/kg/injection, schedule: Q01DX009 (ip), vehicle: saline 110 % of control | dose: 100.0 mg/kg/injection, schedule: Q04DX003 (ip), vehicle: saline 114 % of control | dose: 200.0 mg/kg/injection, schedule: Q01DX009 (ip), vehicle: saline 114 % of control | dose: 200.0 mg/kg/injection, schedule: Q04DX003 (ip), vehicle: saline 116 % of control | dose: 400.0 mg/kg/injection, schedule: Q01DX009 (ip), vehicle: saline 101 % of control | dose: 400.0 mg/kg/injection, schedule: Q04DX003 (ip), vehicle: saline 119 % of control

COc1cccc(NC(=O)c2ccc(C(=O)Nc3cccc(OC)c3)cc2)c1
inactive: dose: 50.0 mg/kg/injection, schedule: Q01DX001 (ip), vehicle: saline 98 % of control | [18] 96 % of control | [19] 91 % of control

O=C(N/N=C\c1ccc(Cl)cc1Cl)c1ccc(F)cc1
inactive: dose: 25.0 mg/kg/injection, schedule: Q01DX009 (ip), vehicle: saline with Tween-80 96 % of control | [23] 94 % of control | [1] 92 % of control

Cc1ccc(C(C)(c2ccccc2)C(C)(CC=O)CC(=O)O)cc1 (stereo unspecified)
inactive: [3] 92 % of control | [6] 92 % of control | [9] 96 % of control

COc1cc(NC(=O)CC(C)=O)cc2c(C)cc(=O)[nH]c12
inactive: [15] 104 % of control | [24] 102 % of control | [16] 96 % of control | [25] 107 % of control | [17] 102 % of control | [26] 102 % of control

CCO/C=C1\SC(=S)N(c2ccccc2C)C1=O
inactive: [24] 98 % of control | [3] 100 % of control | [11] 91 % of control | [25] 109 % of control | [6] 100 % of control | [26] 104 % of control | [9] 91 % of control
